# Source: patent US20170280722A1, “COMPOSITIONS AND METHODS FOR CONTROL OF SAND FLIES AND OTHER BLOOD SUCKING INSECTS” (GENESIS LABORATORIES, INC., priority 2010, published 2017)
# Values joined by “and” are separate entries in the source; they are usually repeats but may differ in a detail not shown here. Equal entries are not always repeated. “Also recorded” adds a separate entry of the source.
# Experiments:
# Assay type in all cases: in vivo
# [1] = test system: P. argentipes 1st instar larvae; assay: Larval bioassay with feces of insecticide treated R. rattus (feed through)
# Protocol: In the first study, a feed through study comparing diflubenzuron, fipronil, ivermectin, and eprinomectin was conducted on rats (Rattus rattus). Fecal samples were collected after three (3) consecutive days of administration of the trial products. The efficacy of the drugs administered during the blind study underwent testing in larval bioassays with P. argentipes 1st instar larvae. Commercially available chicken feed was mixed with the appropriate concentrations of each insecticide compound and used as is in the trial.
# Twelve (12) locally purchased rats (Rattus rattus) of mixed sex were utilized in a small study testing the efficacy of four feed through insecticides. Five treatment groups of two rats each were randomly identified and fed diets consisting of locally available chicken feed treated with one of the following compounds: diflubenzuron (0.048%), fipronil (0.015%), ivermectin (0.025%), and eprinomectin (0.01% and 0.025%). Two rats served as control and were fed only chicken feed. Rats were fed 20 g of their assigned diet daily at the same time, with daily consumption and spillage calculated for a period of three (3) days. Sand fly analyses were conducted simultaneously.
# […] Collected feces were dried at approximately 40° C. in an oven then ground into a fine powder utilizing a pestle and mortar and frozen at −20° C. until larval bioassays were initiated.
# Larval bioassay pots were prepared using 48 mm, 100 g round Dibbi jars. Dishes were prepared by burning several small holes into the bottom of the dish with a soldering iron and filling them with a small layer of plaster (¼ to ½ inch depth). Approximately 15-20 holes were punctured into the lids using 24 gauge needles. For simpler mortality counting, pots were quartered and each quadrant numbered using an ultra fine black Sharpie.
# For each individual post-treatment bioassays, thirteen (13) dishes were loaded with 10 day old 1st instar P. argentipes larvae; twelve (12) pots were provided with approximately 0.005 g of the treated feces, with two sample pots per treated bandicoot rat, and one overall control sample fed only standard larval diet. See Table 1 for sample/treatment correlations. Larvae were loaded into bioassay pots and provided with their designated treatment sample. Mortality counts of larvae were conducted every 24 hours post-treatment until 100% mortality, or pupation, was reached.
# [2] = test system: adult sand flies (P. argentipes); assay: Adult sand fly bioassay on cattle given oral fipronil
# Protocol: (§1) The test substance was given to the cattle orally as a single application. The oral treatment was by hand. Because the oral treatment was delivered in capsule form the dosage was very precise.
# (§2) The four dose levels of fipronil for the treatment groups used in this study were as follows: 0.5, 1.0, 2.0 and 4.0 mg/kg. These were weighed with an analytical balance to the nearest 0.01 g and presented in gelatin capsules.
# A breeding colony of P. argentipes was established during 2009 and is situated in Patna. The colony contains an average of 10,000 sand flies. Adults and larvae are used routinely for studies and are maintained under controlled temperature and humidity conditions.
# Adult sand flies used in this study were transferred to a mud plastered hut built next to the cattle shed. This was to acclimate lab-ready sand flies to natural environmental conditions in which the study was to be conducted. The sand flies were kept in 0.4 m^3 cloth mesh enclosures.
# Adult sand fly bioassays were conducted on days 1, 3, 5, 7, 14, 21, and 28 after oral administration of fipronil. […] Sand flies were counted and placed in a sand fly feeding capsule (10 cm diameter×2 cm deep). […]
# Two sand fly feeding capsules were used per cow. […] Sand flies were allowed to feed for 60 minutes and were monitored closely throughout the feeding period. […]
# [3] = Cattle dosing, observation for adverse effects; settings: 0.5, 1.0, 2.0, and 4.0 mg/kg body weight, single oral dose
# Protocol: as §1
# The observation period can be extended, if necessary based on drug persistence data and residue analysis. The first day of dose application was designated as day 0.
# as §2
# Body weights were recorded individually for all animals during randomization, at the beginning of each week (Monday) during the study period, and at the termination of the study.
# [4] = test system: larval P. argentipes sand flies; assay: Larval bioassay with feces of cattle given a single oral dose of fipronil; settings: for Days after dosing to attain 100% mortality in sand flies: cattle
# Protocol: as §1, §2
# Collection of feces was performed at pre-dosing (day 0) and days 1, 3, 5, 7, 14, 21, and 28 following administration. Feces were sampled using arm length veterinarian sterile glove and about 50 g of feces was placed into individually label plastic jars. Samples were stored in a −20° C. freezer.
# Larval bioassay jars were prepared using 48 mm, 100 g round Dibbi jars (Pearlpet, Pearl Polymers LTD., New Delhi, India). Jars were prepared by burning three small holes into the bottom of the container with a soldering iron. A thin layer (approximately 5 mm) of plaster of Paris was cast on the bottom and wetted to ensure humidity and softening of the test diet. To simplify mortality counts, the plaster was quartered, and each quadrant numbered one through four, using an ultra fine black marker. The lids of the jars were punctured with 15-20 small holes using a heated 24-gauge hypodermic needle.
# Each bioassay jar was loaded with ten one to two day old first instar P. argentipes larvae. Approximately 5 mg treated feces were sprinkled evenly over the plaster. Larval bioassay samples were maintained in a controlled environment at approximately 24° C. with relative humidity maintained at approximately 80% through daily moistening of paper towels underneath the jars. Any observed mold or mites were removed during each day's observation. Each bioassay group included one control jar with larvae provided standard larval food consisting of rabbit feed, rabbit pellets, and dried chicken blood which were mixed, dried, composted, and crushed. Mortality counts of larvae were conducted every 24 hours post-exposure until 100% mortality or pupation was observed. Larvae were considered dead if no physical response was observed within 15 seconds of light stimulation with a blunt probe.
# [5] = feces of R. rattus day-1 post treatment, 150 ppm
compound,measurement,setting,value
N#Cc1nn(-c2c(Cl)cc(C(F)(F)F)cc2Cl)c(N)c1[S+]([O-])C(F)(F)F (stereo not drawn) [fipronil],Mean ± SEM survival (days) of P. arg larvae post-exposure,[1]; [5],2.25 ± 0.10 days
same,P. argentipes larvae mortality (%),[1]; [5],100%
same,Day of observation by which 100% larval mortality was reached,[1]; feces of R. rattus fed 0.015% in feed,≤ 3 days
same,Time to paralysis of larvae after exposure,[1]; larvae exposed to feces of fipronil-treated animals,≤ 24 h
same,Speed of mortality and duration of effectiveness compared with the other compounds tested,"[1]; larval P. argentipes, rodent feed through trials",quickest mortality and longest lasting effectiveness of all of the compounds tested; also recorded: quickest knockdown and longest lasting efficacy of all of the insecticides examined
same,Level of control of adult sand flies as a systemic,"[2]; cattle, oral, without having an impact on milk residues",high levels of control were not attainable
same,Adult sand fly mortality versus dose level,"[2]; days 14 and 21 post-treatment, one hour exposure to cattle, 0.5-4.0 mg/kg",mortality increased with dose level
same,Adverse effect from dosing the cattle,[3],no observed adverse effect
same,Larval mortality,"[4]; all dose levels (0.5-4.0 mg/kg), over the 21-day study",100%
same,Day by which 100% sand fly mortality was attained,"[4]; cattle feces of day 3 post-treatment, dose level not stated",≤ 4 days
same,Days after dosing to attain 100% mortality in sand flies,"[4]; single oral dose 0.5 mg/kg, feces of day 1 after administration",5.5 days
same,Days after dosing to attain 100% mortality in sand flies,"[4]; single oral dose 0.5 mg/kg, feces of day 3 after administration",6.0 days
same,Days after dosing to attain 100% mortality in sand flies,"[4]; single oral dose 0.5 mg/kg, feces of day 5 after administration",9.5 days
same,Days after dosing to attain 100% mortality in sand flies,"[4]; single oral dose 0.5 mg/kg, feces of day 14 after administration",17 days
same,Days after dosing to attain 100% mortality in sand flies,"[4]; single oral dose 0.5 mg/kg, feces of day 21 after administration",15.5 days
same,Days after dosing to attain 100% mortality in sand flies,"[4]; single oral dose 1.0 mg/kg, feces of day 1 after administration",4.5 days
same,Days after dosing to attain 100% mortality in sand flies,"[4]; single oral dose 1.0 mg/kg, feces of day 3 after administration",4.0 days
same,Days after dosing to attain 100% mortality in sand flies,"[4]; single oral dose 1.0 mg/kg, feces of day 5 after administration",9.0 days
same,Days after dosing to attain 100% mortality in sand flies,"[4]; single oral dose 1.0 mg/kg, feces of day 14 after administration",20 days
same,Days after dosing to attain 100% mortality in sand flies,"[4]; single oral dose 1.0 mg/kg, feces of day 21 after administration",16.5 days
same,Days after dosing to attain 100% mortality in sand flies,"[4]; single oral dose 2.0 mg/kg, feces of day 1 after administration",4.0 days
same,Days after dosing to attain 100% mortality in sand flies,"[4]; single oral dose 2.0 mg/kg, feces of day 3 after administration",4.0 days
same,Days after dosing to attain 100% mortality in sand flies,"[4]; single oral dose 2.0 mg/kg, feces of day 5 after administration",7.0 days
same,Days after dosing to attain 100% mortality in sand flies,"[4]; single oral dose 2.0 mg/kg, feces of day 14 after administration",10 days
same,Days after dosing to attain 100% mortality in sand flies,"[4]; single oral dose 2.0 mg/kg, feces of day 21 after administration, 2 mg/kg",12 days and 12.0 days
same,Days after dosing to attain 100% mortality in sand flies,"[4]; single oral dose 4.0 mg/kg, feces of day 1 after administration",4.0 days
same,Days after dosing to attain 100% mortality in sand flies,"[4]; single oral dose 4.0 mg/kg, feces of day 3 after administration",4.0 days
same,Days after dosing to attain 100% mortality in sand flies,"[4]; single oral dose 4.0 mg/kg, feces of day 5 after administration",6.5 days
same,Days after dosing to attain 100% mortality in sand flies,"[4]; single oral dose 4.0 mg/kg, feces of day 14 after administration",11 days
same,Days after dosing to attain 100% mortality in sand flies,"[4]; single oral dose 4.0 mg/kg, feces of day 21 after administration, 4 mg/kg",10 days and 10.0 days
